Measurements taken from ChEMBL document CHEMBL5442175, “EUbOPEN Chemogenomics Library - PDSP Secondary Binding” (2024).
Counter-ions that a name gives are not always drawn.

Experiments:
[1] = biological target: Sodium-dependent noradrenaline transporter (Homo sapiens, UniProt P23975); test: (§1) PDSP Secondary Binding target: SLC6A2 - Compounds are tested at 10 uM concentration, plate are incubated at room temperature in the dark for 90 minutes. Reaction are stopped by vacuum filtration onto 0.3% polyethyleneimine soaked filter mats using Filtermate harvester. Scintillation cocktail is then melted onto microwave-dried filters on a hot plate and the radio activity is counted in Microbia counter.
Sodium-dependent noradrenaline transporter, sequence (P23975 whole entry): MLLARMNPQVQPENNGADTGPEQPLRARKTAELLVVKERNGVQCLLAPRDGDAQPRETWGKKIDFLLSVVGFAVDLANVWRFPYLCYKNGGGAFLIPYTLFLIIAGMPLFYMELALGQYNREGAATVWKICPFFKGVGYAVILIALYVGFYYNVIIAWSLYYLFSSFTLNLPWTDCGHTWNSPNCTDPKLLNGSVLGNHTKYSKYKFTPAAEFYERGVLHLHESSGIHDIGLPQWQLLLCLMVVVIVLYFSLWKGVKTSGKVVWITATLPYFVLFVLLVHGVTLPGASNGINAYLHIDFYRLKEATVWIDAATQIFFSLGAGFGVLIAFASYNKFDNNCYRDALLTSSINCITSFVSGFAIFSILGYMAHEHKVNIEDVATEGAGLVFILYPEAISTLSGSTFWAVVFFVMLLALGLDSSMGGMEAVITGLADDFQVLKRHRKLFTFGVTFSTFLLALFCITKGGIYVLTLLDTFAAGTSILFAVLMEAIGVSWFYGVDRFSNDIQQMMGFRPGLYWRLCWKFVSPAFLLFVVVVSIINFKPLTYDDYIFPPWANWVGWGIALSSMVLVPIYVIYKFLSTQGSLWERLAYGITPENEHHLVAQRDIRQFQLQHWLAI

[2] = biological target: Sodium-dependent dopamine transporter (Homo sapiens, UniProt Q01959); test: as §1, with “SLC6A3” for “SLC6A2”
Sodium-dependent dopamine transporter, sequence (Q01959 whole entry): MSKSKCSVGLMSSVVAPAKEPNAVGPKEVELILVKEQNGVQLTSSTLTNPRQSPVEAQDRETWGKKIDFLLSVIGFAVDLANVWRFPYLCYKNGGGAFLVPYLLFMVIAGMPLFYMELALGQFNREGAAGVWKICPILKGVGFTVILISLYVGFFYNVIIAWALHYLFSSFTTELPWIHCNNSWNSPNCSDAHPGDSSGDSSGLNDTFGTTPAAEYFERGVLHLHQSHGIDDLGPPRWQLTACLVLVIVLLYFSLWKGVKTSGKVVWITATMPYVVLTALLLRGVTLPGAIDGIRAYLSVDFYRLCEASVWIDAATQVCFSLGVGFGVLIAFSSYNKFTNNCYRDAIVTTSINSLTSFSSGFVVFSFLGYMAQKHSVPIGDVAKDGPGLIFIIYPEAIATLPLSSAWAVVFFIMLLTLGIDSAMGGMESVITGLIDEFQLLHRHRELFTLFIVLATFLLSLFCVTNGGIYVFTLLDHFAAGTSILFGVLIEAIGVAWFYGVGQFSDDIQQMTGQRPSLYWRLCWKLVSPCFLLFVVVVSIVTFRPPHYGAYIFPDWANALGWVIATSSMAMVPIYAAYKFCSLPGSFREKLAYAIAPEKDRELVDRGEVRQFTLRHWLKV

[3] = biological target: T1, Alpha-2A adrenergic receptor (Homo sapiens, UniProt P08913); test: as §1, with “ADRA2A” for “SLC6A2”
T1 sequence (P08913 whole entry): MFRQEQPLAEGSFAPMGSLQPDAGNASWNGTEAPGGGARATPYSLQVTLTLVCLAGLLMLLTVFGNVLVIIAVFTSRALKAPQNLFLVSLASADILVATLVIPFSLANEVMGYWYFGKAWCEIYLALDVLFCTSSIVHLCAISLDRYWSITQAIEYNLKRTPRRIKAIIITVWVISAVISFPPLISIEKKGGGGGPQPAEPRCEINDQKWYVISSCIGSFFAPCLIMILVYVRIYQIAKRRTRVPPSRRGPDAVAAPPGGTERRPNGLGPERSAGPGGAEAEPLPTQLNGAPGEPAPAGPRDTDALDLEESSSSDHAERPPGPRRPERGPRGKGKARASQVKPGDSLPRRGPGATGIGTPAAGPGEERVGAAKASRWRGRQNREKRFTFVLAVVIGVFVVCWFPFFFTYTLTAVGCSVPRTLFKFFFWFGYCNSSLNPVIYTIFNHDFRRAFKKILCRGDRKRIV

[4] = biological target: 5-hydroxytryptamine receptor 7 (Homo sapiens, UniProt P34969); test: as §1, with “HTR7” for “SLC6A2”
5-hydroxytryptamine receptor 7, sequence (P34969 whole entry): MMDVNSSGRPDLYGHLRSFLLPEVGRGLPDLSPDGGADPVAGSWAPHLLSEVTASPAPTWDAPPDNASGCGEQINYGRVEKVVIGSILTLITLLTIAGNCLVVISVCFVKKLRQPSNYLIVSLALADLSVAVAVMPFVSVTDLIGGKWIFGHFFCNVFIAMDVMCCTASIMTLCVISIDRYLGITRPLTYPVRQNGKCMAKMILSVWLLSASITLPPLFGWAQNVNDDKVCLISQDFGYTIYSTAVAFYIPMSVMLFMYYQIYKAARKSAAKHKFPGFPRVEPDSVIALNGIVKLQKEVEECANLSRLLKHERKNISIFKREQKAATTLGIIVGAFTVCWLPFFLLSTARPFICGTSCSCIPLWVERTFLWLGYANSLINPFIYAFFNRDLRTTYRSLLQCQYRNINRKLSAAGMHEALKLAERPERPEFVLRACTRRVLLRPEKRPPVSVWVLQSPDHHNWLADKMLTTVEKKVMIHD

[5] = biological target: 5-hydroxytryptamine receptor 1E (Homo sapiens, UniProt P28566); test: as §1, with “HTR1E” for “SLC6A2”
5-hydroxytryptamine receptor 1E, sequence (P28566 whole entry): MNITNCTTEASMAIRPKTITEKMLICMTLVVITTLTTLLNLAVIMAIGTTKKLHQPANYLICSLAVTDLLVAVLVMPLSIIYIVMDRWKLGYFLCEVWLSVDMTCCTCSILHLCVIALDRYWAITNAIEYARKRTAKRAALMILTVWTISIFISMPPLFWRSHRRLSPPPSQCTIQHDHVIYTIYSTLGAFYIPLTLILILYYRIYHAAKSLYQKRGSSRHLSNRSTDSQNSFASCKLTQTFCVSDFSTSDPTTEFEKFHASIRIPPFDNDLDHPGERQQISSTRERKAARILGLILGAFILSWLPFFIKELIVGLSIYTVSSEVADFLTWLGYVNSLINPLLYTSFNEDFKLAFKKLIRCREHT

[6] = biological target: T2, Alpha-2B adrenergic receptor (Homo sapiens, UniProt P18089); test: as §1, with “ADRA2B” for “SLC6A2”
T2 sequence (P18089 whole entry): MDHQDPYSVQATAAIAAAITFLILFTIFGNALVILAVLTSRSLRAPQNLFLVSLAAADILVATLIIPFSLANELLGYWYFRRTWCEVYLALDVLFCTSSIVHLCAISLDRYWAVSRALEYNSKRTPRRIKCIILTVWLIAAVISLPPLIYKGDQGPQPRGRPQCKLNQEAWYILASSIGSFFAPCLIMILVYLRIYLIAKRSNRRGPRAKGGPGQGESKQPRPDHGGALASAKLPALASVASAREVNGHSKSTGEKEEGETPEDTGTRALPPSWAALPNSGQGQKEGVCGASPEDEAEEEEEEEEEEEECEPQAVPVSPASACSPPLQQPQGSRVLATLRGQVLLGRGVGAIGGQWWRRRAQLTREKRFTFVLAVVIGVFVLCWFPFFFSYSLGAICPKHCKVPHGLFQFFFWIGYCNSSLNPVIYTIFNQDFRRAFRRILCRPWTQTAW

[7] = biological target: T3, 5-hydroxytryptamine receptor 2C (Homo sapiens, UniProt P28335); test: as §1, with “HTR2C” for “SLC6A2”
T3 sequence (P28335 whole entry): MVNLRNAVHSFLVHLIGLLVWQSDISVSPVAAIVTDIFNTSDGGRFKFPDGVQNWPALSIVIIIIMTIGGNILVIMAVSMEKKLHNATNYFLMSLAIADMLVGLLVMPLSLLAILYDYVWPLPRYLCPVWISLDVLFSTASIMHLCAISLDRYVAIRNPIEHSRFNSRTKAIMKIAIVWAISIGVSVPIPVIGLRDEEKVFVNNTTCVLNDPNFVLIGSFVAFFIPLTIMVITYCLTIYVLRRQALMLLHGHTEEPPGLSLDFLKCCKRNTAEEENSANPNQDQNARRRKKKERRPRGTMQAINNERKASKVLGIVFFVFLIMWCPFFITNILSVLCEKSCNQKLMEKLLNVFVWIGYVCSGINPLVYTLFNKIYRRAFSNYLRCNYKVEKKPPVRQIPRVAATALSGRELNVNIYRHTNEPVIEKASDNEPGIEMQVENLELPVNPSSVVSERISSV

D(4) dopamine receptor = biological target: T4, D(4) dopamine receptor (Homo sapiens, UniProt P21917); test: as §1, with “DRD4” for “SLC6A2”
T4 sequence (P21917 whole entry): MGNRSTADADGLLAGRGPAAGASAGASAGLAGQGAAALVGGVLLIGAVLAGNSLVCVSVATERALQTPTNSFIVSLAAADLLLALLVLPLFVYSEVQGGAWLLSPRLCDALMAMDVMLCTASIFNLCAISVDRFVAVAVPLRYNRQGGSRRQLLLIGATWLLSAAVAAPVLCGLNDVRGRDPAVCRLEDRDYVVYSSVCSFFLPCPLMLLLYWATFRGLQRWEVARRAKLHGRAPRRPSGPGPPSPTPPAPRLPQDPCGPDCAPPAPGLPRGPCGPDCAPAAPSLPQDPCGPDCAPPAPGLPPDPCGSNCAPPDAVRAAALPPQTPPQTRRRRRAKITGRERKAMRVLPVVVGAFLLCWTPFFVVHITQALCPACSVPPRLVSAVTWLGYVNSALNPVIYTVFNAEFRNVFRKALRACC

[8] = biological target: 5-hydroxytryptamine receptor 5A (Homo sapiens, UniProt P47898); test: as §1, with “HTR5A” for “SLC6A2”
5-hydroxytryptamine receptor 5A, sequence (P47898 whole entry): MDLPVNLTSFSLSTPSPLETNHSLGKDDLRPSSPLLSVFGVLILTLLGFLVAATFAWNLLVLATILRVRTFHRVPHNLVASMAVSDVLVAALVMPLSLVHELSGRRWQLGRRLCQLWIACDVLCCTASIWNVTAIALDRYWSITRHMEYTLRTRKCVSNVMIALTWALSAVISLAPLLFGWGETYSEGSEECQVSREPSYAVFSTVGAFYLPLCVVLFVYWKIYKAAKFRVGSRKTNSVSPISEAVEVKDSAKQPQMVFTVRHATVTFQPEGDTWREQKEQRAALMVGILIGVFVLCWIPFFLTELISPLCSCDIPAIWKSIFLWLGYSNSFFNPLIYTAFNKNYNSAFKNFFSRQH

Row | Structure (SMILES) | Ki [1] | Ki [2] | Ki [3] | Ki [4] | Ki [5] | Ki [6] | Ki [7] | Ki (D(4) dopamine receptor) | Ki [8]
1 | O=c1ccc2ccc(OCCCCN3CCN(c4cccc5sccc45)CC3)cc2[nH]1 [BREXPIPRAZOLE] | 689 nM | 364 nM | 212 nM | 30.4 nM | 478 nM | 191 nM | 60.5 nM | 36 nM | 178 nM
2 | COC(=O)C1=C(C)NC(C)=C(C(=O)OCCCN2CCC(c3ccccc3)(c3ccccc3)CC2)[C@H]1c1cccc([N+](=O)[O-])c1 [NIGULDIPINE] | 857 nM | 591 nM | – | 313 nM | – | – | 1850 nM | – | 431 nM
3 | CN1CCN(c2ccc(Nc3c4ccccc4nc4ccccc34)cc2)CC1 | 120 nM | 451 nM | – | 414 nM | – | – | – | – | –
4 | COc1ccc(NC(=O)c2ccc(-c3ccc(-c4noc(C)n4)cc3C)cc2)cc1OCCN(C)C | 664 nM | 984 nM | 440 nM | 1100 nM | 981 nM | 667 nM | 264 nM | – | 1160 nM
5 | CN1C[C@H](C(=O)N[C@]2(C)O[C@@]3(O)[C@@H]4CCCN4C(=O)[C@H](Cc4ccccc4)N3C2=O)C[C@@H]2c3cccc4[nH]cc(c34)C[C@H]21 [DIHYDROERGOTAMINE MESYLATE] | – | – | – | 60.2 nM | 682 nM | – | 214 nM | 32.8 nM | 31.3 nM
6 | COc1cc(-n2cnc3cc(-c4ccc(Cl)cc4)sc3c2=O)ccc1OCCN1CCCC1 | – | – | 2940 nM | – | – | – | 893 nM | – | 557 nM
7 | Cc1nc2sccn2c(=O)c1CCN1CCC(=C(c2ccc(F)cc2)c2ccc(F)cc2)CC1 [RITANSERIN] | 685 nM | 318 nM | 367 nM | 47.3 nM | 556 nM | 655 nM | 4.09 nM | 238 nM | 102 nM
8 | Cc1c(P(=S)(c2ccccc2)c2ccccc2)n2ccccc2[n+]1C/C=C/c1ccccc1 | 956 nM | – | 568 nM | – | – | – | – | – | –
9 | CCCCCNC(=N)N/N=C/c1c[nH]c2ccc(OC)cc12 [TEGASEROD MALEATE] | – | – | – | – | – | 2840 nM | 142 nM | 191 nM | 201 nM
10 | Clc1cccc(COc2cncc(N3CCNCC3)n2)c1 | – | – | – | 556 nM | 1450 nM | – | 9.45 nM | – | –
11 | OCc1cc(C(O)CNCCCCCCOCCCCc2ccccc2)ccc1O (configuration not stated) [SALMETEROL] | 382 nM | 149 nM | > 10000 nM | 257 nM | – | 1940 nM | 4090 nM | 1080 nM | –
12 | CN1CCCC(n2nc(Cc3ccc(Cl)cc3)c3ccccc3c2=O)CC1 (configuration not stated) [AZELASTINE HYDROCHLORIDE] | – | – | 1450 nM | 385 nM | 5370 nM | 230 nM | – | – | –
13 | Cc1nc(-c2ccc(-c3ccc(C(=O)N4CCc5cc6c(cc54)C4(CCN(C)CC4)CO6)cc3)c(C)c2)no1 [SB-224289] | 1730 nM | 1180 nM | 2430 nM | – | – | 2170 nM | 859 nM | – | –

Now from value to compound:

Row | Ki [1] | Ki [2] | Ki [3] | Ki [4] | Ki [5] | Ki [6] | Ki [7] | Ki (D(4) dopamine receptor) | Ki [8] | Structure (SMILES)
14 | 15.5 nM | 21.8 nM | 2490 nM | 794 nM | – | – | – | 824 nM | – | N#Cc1ccc2[nH]cc(CCCCN3CCN(c4ccc5oc(C(N)=O)cc5c4)CC3)c2c1 [VILAZODONE HYDROCHLORIDE]
15 | 618 nM | 295 nM | 178 nM | 1540 nM | – | 512 nM | 251 nM | – | 1550 nM | S=C(NCCCc1c[nH]cn1)NCCCN(Cc1ccc(Cl)c(Cl)c1)c1ccc(Br)cn1
16 | – | – | 729 nM | 14.7 nM | 5570 nM | 45.8 nM | – | – | 107 nM | Cc1ccc2c(c1)c1c(n2CCc2ccc(C)nc2)CCN(C)C1 [LATREPIRDINE]
17 | – | – | – | – | – | 3140 nM | 328 nM | – | 2450 nM | CCc1ccc(OCc2ccccc2C(=O)Nc2ccc3nc(C)cc(N)c3c2)cc1
18 | – | – | 683 nM | 480 nM | – | 786 nM | – | 1580 nM | – | C[C@H](Cc1cc2c(c(C(N)=O)c1)N(CCCO)CC2)NCCOc1ccccc1OCC(F)(F)F [SILODOSIN]
19 | > 10000 nM | 2690 nM | 2020 nM | 744 nM | – | 667 nM | – | 95.7 nM | 6730 nM | O=S1(=O)c2cccc3cccc(c23)N1CCCN1CCN(c2ccc(F)cc2)CC1 [FANANSERIN]
20 | – | – | – | 70.2 nM | – | 192 nM | – | 326 nM | 1090 nM | CCc1nn(CCCN2CCN(c3cccc(Cl)c3)CC2)c(=O)n1CCOc1ccccc1 [NEFAZODONE HYDROCHLORIDE]
21 | – | – | 1740 nM | 76.1 nM | – | 1090 nM | 1250 nM | – | 3290 nM | CN(C)C(=O)N[C@H]1CC[C@H](CCN2CCN(c3cccc(Cl)c3Cl)CC2)CC1 [CARIPRAZINE HYDROCHLORIDE]
